The record followed here is ChEMBL document CHEMBL6109152, “Harnessing the SPOP E3 Ubiquitin Ligase via a Bridged Proteolysis Targeting Chimera (PROTAC) Strategy for Targeted Protein Degradation” (J Med Chem, 2025).

Calls of active or inactive are those of the source. The calls are words filed in the database; no cut-off is given here.

The target of data set [1] is T1, Speckle-type POZ protein-Bromodomain-containing protein 4 (Homo sapiens, UniProt O60885+O43791). Nature of the data set: PROTAC activity at SPOP/BRD4-S in human HT-29 cells assessed as induction of BRD4 short isoform degradation at 5 uM preincubated with JQ1 for 2 hrs followed by compound addition and measured after 24 hrs by Western blot analysis. The data set is classed as cell-based.
T1 sequence (O43791 whole entry, looked up, other chains not shown, canonical isoform): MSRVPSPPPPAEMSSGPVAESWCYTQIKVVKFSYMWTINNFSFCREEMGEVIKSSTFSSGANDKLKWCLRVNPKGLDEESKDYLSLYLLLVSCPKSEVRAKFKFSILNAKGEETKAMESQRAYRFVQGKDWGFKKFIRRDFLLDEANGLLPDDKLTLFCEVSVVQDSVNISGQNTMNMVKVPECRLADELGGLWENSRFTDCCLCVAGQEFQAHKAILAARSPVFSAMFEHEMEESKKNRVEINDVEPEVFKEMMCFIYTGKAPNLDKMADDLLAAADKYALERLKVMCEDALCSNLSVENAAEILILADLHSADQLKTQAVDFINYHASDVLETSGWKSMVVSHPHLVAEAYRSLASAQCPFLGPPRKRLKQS

The subject of a further data set is HT-29. Nature of the data set: Binding affinity to BRD4-L/GLP/SPOP in human HT-29 cells assessed as compound-BRD4-GLP-SPOP quaternary complex formation at 20 to 100 uM incubated for 1 hrs by pulldown based Western blot analysis. The settings on record: dose 20-100 µM. The data set is classed as cell-based.
In data set [2] the target is T2, Bromodomain-containing protein 4 (Homo sapiens, UniProt O60885). Nature of the data set: Inhibition of BRD4 in human HT-29 cells assessed as decrease in c-MYC protein level by measuring fold change at 0.625 uM incubated for 24 hrs by Western blot analysis (reference value: 1.00). The data set is classed as cell-based.
The target in data set [3] is T3, Speckle-type POZ protein-Bromodomain-containing protein 2 (Homo sapiens) (UniProt P25440+O43791). Nature of the data set: PROTAC activity at SPOP/BRD2 in human HT-29 cells assessed as induction of BRD2 degradation by measuring fold change at 0.156 uM incubated for 24 hrs by Western blot analysis (reference value: 1.00). The data set is classed as cell-based.
T3 sequence (O43791 whole entry, looked up, canonical isoform): as the sequence (O43791 whole entry, looked up, other chains not shown, canonical isoform) above
T3 sequence (P25440 whole entry, looked up, canonical isoform): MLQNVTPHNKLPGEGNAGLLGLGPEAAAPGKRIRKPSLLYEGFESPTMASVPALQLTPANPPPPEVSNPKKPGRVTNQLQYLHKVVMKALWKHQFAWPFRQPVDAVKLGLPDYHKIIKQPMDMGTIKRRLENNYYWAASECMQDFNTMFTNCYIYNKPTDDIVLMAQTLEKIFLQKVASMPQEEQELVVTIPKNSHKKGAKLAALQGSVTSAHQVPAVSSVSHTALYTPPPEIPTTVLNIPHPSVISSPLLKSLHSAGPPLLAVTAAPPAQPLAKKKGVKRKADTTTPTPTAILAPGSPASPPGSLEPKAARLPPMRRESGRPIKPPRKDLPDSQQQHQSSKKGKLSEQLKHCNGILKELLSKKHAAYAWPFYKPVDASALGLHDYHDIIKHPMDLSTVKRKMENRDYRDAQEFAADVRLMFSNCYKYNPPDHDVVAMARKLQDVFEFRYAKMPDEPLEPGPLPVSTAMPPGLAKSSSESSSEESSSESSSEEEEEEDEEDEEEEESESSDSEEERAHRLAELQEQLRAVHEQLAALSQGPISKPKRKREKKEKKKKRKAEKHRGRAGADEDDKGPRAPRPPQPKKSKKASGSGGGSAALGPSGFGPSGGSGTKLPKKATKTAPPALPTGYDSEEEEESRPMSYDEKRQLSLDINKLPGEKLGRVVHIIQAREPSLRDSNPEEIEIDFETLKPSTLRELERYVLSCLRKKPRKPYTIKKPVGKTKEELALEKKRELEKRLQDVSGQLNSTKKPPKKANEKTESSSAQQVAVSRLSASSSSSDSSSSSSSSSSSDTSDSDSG
Data set [4] concerns the target T1, Speckle-type POZ protein-Bromodomain-containing protein 4. Nature of the data set: PROTAC activity at SPOP/BRD4-S in human HT-29 cells assessed as induction of BRD4 short isoform degradation by measuring fold change at 0.313 uM incubated for 24 hrs by Western blotting analysis (reference value: 1.00). The data set is classed as cell-based.
Data set [5] addresses T2, Bromodomain-containing protein 4. Nature of the data set: Inhibition of BRD4 in human HT-29 cells assessed as decrease in c-MYC protein level at 5 uM measured after 2 hrs by Western blot analysis. The data set is classed as cell-based.
Another data set has as its system PNT2. Nature of the data set: Cytotoxicity against human PNT2 assessed as reduction in cell growth at 0.021 to 10 uM incubated for 72 hrs by WST-8 reagent based assay. It is filed as toxicity. To be noted: pnt2, 72 h, dose 0.021-10 µM.
Data set [6] addresses T4, Speckle-type POZ protein-Bromodomain-containing protein 3 (Homo sapiens) (UniProt Q15059+O43791). Nature of the data set: PROTAC activity at SPOP/BRD3 in human HT-29 cells assessed as induction of BRD3 degradation by measuring fold change at 0.625 uM incubated for 24 hrs by Western blot analysis (reference value: 1.00). It is filed as cell-based.
Data set [7] addresses T2, Bromodomain-containing protein 4. Nature of the data set: Inhibition of BRD4 in human HT-29 cells assessed as decrease in c-MYC protein level by measuring fold change at 0.156 uM incubated for 24 hrs by Western blot analysis (reference value: 1.00). The data set is classed as cell-based.
For data set [8], the target named is T3, Speckle-type POZ protein-Bromodomain-containing protein 2 (Homo sapiens). Nature of the data set: PROTAC activity at SPOP/BRD2 in human HT-29 cells assessed as induction of BRD2 degradation by measuring fold change at 0.313 uM incubated for 24 hrs by Western blot analysis (reference value: 1.00). It is filed as cell-based.
Data set [9] concerns the target T1, Speckle-type POZ protein-Bromodomain-containing protein 4. Nature of the data set: PROTAC activity at SPOP/BRD4-L in human HT-29 cells assessed as induction of BRD4 long isoform degradation by measuring fold change at 2.5 uM incubated for 24 hrs by Western blotting analysis (reference value: 1.00). The data set is classed as cell-based.
Data set [10] shares this target. Nature of the data set: PROTAC activity at SPOP/BRD4-L in human HT-29 cells assessed as induction of BRD4 long isoform degradation by measuring fold change at 0.625 uM incubated for 24 hrs by Western blotting analysis (reference value: 1.00). The data set is classed as cell-based.
The target in data set [11] is T2, Bromodomain-containing protein 4. Nature of the data set: Inhibition of BRD4 in human HT-29 cells assessed as decrease in c-MYC protein level by measuring fold change at 10 uM incubated for 24 hrs by Western blot analysis (reference value: 1.00). The data set is classed as cell-based.
Data set [12] shares this target. Nature of the data set: Binding affinity to BRD4-BD2 domain (unknown origin) assessed as assessed as dissociation constant by ITC analysis.
Data set [13] concerns the target T1, Speckle-type POZ protein-Bromodomain-containing protein 4. Nature of the data set: PROTAC activity at SPOP/BRD4-S in human HT-29 cells assessed as induction of BRD4 short isoform degradation by measuring fold change at 2.5 uM incubated for 24 hrs by Western blotting analysis (reference value: 1.00). It is filed as cell-based.
The target of data set [14] is T3, Speckle-type POZ protein-Bromodomain-containing protein 2 (Homo sapiens). Nature of the data set: PROTAC activity at SPOP/BRD2 in human HT-29 cells assessed as induction of BRD2 degradation by measuring fold change at 5 uM incubated for 24 hrs by Western blot analysis (reference value: 1.00). It is filed as cell-based.
For data set [15], the target named is T1, Speckle-type POZ protein-Bromodomain-containing protein 4. Nature of the data set: PROTAC activity at SPOP/BRD4-L in human HT-29 cells assessed as induction of BRD4 long isoform degradation by measuring fold change at 5 uM incubated for 24 hrs by Western blotting analysis (reference value: 1.00). It is filed as cell-based.
In data set [16] the target is T4, Speckle-type POZ protein-Bromodomain-containing protein 3 (Homo sapiens). Nature of the data set: PROTAC activity at SPOP/BRD3 in human HT-29 cells assessed as induction of BRD3 degradation by measuring fold change at 2.5 uM incubated for 24 hrs by Western blot analysis (reference value: 1.00). The data set is classed as cell-based.
For data set [17], the target named is T1, Speckle-type POZ protein-Bromodomain-containing protein 4. Nature of the data set: PROTAC activity at SPOP/BRD4-S in human HT-29 cells assessed as induction of BRD4 short isoform degradation by measuring maximal efficacy at 0.156 to 10 uM incubated for 24 hrs by Western blotting analysis relative to control. The data set is classed as cell-based. To be noted: dose 0.156-10 µM.

For data set [18] the target is unchanged. Nature of the data set: PROTAC activity at SPOP/BRD4-S in human HT-29 cells assessed as induction of BRD4 short isoform degradation at 5 uM preincubated with MLN4924 for 2 hrs followed by compound addition and measured after 24 hrs by Western blot analysis. It is filed as cell-based.

T4 sequence (O43791 whole entry, looked up): as the sequence (O43791 whole entry, looked up, other chains not shown, canonical isoform) above
T4 sequence (Q15059 whole entry, looked up): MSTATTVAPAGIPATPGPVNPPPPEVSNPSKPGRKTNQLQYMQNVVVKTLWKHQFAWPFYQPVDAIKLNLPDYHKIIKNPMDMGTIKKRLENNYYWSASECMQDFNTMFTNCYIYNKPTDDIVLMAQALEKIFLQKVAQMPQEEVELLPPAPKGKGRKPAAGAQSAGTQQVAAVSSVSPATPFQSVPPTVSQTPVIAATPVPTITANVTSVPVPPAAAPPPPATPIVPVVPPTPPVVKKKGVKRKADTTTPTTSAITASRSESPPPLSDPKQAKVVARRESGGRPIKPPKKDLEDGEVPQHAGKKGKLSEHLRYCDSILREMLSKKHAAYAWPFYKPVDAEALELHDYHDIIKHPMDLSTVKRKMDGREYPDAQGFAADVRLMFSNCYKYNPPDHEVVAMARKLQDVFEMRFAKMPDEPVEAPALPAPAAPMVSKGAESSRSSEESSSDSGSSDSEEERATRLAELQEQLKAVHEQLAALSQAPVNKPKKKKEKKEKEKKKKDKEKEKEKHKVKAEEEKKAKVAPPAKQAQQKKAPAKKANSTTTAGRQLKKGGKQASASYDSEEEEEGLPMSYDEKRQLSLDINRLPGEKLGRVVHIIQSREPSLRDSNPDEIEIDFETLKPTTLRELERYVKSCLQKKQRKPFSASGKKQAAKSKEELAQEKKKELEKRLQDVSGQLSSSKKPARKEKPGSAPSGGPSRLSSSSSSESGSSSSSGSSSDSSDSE

In the case of `COc1cc2c(NC3CCN(CCCC(=O)NCCCCCCCCCCNC(=O)C[C@@H]4N=C(c5ccc(Cl)cc5)c5c(sc(C)c5C)-n5c(C)nnc54)CC3)cc(N3CCOCC3)nc2cc1OCCCN1CCCC1`, the result in [1] and in data set [18] was inactive. For the same molecule, the outcome in the data set on HT-29 was Active. The fold change (FC) stood at 0.7 in [2]; 1.3 in data set [3]; 1.2 in data set [4]; 0.9 in data set [6]; 1 in data set [7]; 1.2 in data set [8]. For the same molecule, the fold change (FC) in data set [9] is 1.2; in data set [10] it was 1.2; in [11], 0.03; in data set [13], 0.5; in data set [14] it was 0.9; in data set [15] it was 0.7. In addition, the fold change (FC) in [16] was determined as 0.7. In addition, in [5], the inhibition entry is “Active”. The Activity entry in the data set on PNT2 is listed as “Non-toxic”. Besides, the Kd in [12] is 200 nM. In addition, in data set [17], the Emax was determined as 63%.
